The values below come from patent US9221823B2, “Crystal form of pyrrolidylthiocarbapenem derivative” (Shionogi & Co., Ltd., priority 2000, dated 2015).

What all share (format): physicochemical
The nature of series [1]: Moisture measurement after storage (Karl Fischer water determination). Particulars: for Moisture absorption (in words): storage at 40° C. and 75% RH up to 1 month. Here is the method:
Storage conditions were 40° C. and 75% RH. The periods of time for storage were 1 week, 2 weeks and 1 month. During these storage periods, samples were stored in opened petri dishes. After storage in this manner, the moisture and potency of each sample were measured. The moisture was measured according to REQUIREMENT FOR ANTIBIOTIC PRODUCTS OF JAPAN General Tests MOISTURE DETERMINATION II Water determination. Note that Karl Fischer formamide methanol mixture II was used as the solvent.

Series [2] can be described thus: Potency test by liquid chromatography after storage. Particulars: for Change of potency over storage time (in words): storage at 40° C. and 75% RH up to 1 month. As to the method: Storage conditions were 40° C. and 75% RH. The periods of time for storage were 1 week, 2 weeks and 1 month. During these storage periods, samples were stored in opened petri dishes.
After storage in this manner, the moisture and potency of each sample were measured.
A potency test was conducted by the following method. About 0.025 g of each of the type IV crystal obtained in Example 4 and type II crystal and a standard product of S-4661 was precisely measured. Each sample was dissolved in water to precisely 100 mL. 10 mL of each solution was precisely measured, to which 5 ml of internal standard solution was added. As the internal standard solution, aqueous acetaminophen solution (concentration 1/20000:1 g of acetaminophen in 20000 ml of the solution) was used. Thereafter, water was added to each solution to 50 mL. Solutions prepared from the type IV or II crystals were used as sample solutions. A solution prepared from a standard product of S-4661 was used as a standard solution. 10 μL of each of the sample solutions and the standard solution were subjected to liquid chromatography under the following conditions. For the sample solution, the ratio QT of the peak area of S-4661 to the peak area of the internal standard substance was obtained. For the standard solution, the ratio QS of the peak area of S-4661 to the peak area of the internal standard substance was obtained.
Conditions for Operation • Detector: ultraviolet absorptiometer (measurement wavelength: 240 nm) • Column: a stainless steel tube having an inner diameter of about 4.6 mm and a length of about 15 cm was filled with 5 μm of octadecylsilylated silica gel for liquid chromatography (L-column ODS). • Column temperature: a constant temperature of around 25° C. • Mobile phase: 2 mmol/L phosphate buffer pH 5.8/acetonitrile mixture (191:9) • Flow rate: Flow rate was adjusted so that the retention time of S-4661 was about 8 to 9 minutes (about 1 mL/min). • Selection of column: 10 μL of standard solution was used and the operation was conducted under the above-described conditions. A column, which elutes S-4661 and the internal standard substance in this order and has a resolution between S-4661 and the internal standard substance of at least 3, was used.
Potencies were calculated by the following expression.

A short description of series [3]: Assessment of storage stability of crystals. Particulars: for Storage stability (in words): compared to conventional type I or II crystals. As to the method: The storage stability of the thus-obtained crystal of the present invention was assessed.
Hereinafter, a result of evaluation of comparing the stability of the crystals of the present invention with that of a conventional crystal (type II crystal) is specifically shown.
The stability of type II crystal of S4661 (conventional crystal) was compared with that of the type IV crystal obtained in the above-described Example 4.

[4] abbreviates: 1 month storage at 40° C. and 75% RH, opened petri dish.
[5] abbreviates: 1 week storage at 40° C. and 75% RH, opened petri dish.
[6] abbreviates: 2 weeks storage at 40° C. and 75% RH, opened petri dish.

As to `C[C@@H](O)[C@H]1C(=O)N2C(C(=O)O)=C(S[C@@H]3CN[C@H](CNS(N)(=O)=O)C3)[C@H](C)[C@H]12` [Type II, (+)-(4R,5S,6S)-6-[(1R)-1-hydroxyethyl]-4-methyl-7-oxo-3[[(3S,5S)-5-(sulfamoylaminomethyl)pyrrolidin-3-yl]thio]-1-azabicyclo[3.2.0]hept-2-ene-2-carboxylic acid], the Moisture came out at 10.31% in series [1] (setting [4]); 9.51% in series [1] (setting [5]); 10.36% in series [1] (setting [6]); 4.56% in series [1] (Initial time, before storage). For the same molecule, the “Moisture level at which moisture became constant” value in series [1] (after about two weeks at 40° C. and 75% RH) is “about 10%”. Further, the “Moisture absorption (in words)” value in series [1] (listed as type II crystal) is “absorbs moisture”. For the same molecule, the Potency in series [2] (setting [4]) is 826.4 µg/mg; in series [2] (setting [5]), 956.2 µg/mg; in series [2] (setting [6]), 923.0 µg/mg; in series [2] (Initial time, before storage) it was 983.2 µg/mg. Further, in series [2] (listed as type II crystal), the “Change of potency over storage time (in words)” value is “decreased over time”.
For `C[C@@H](O)[C@H]1C(=O)N2C(C(=O)O)=C(S[C@@H]3CN[C@H](CNS(N)(=O)=O)C3)[C@H](C)[C@H]12` [Type III, (+)-(4R,5S,6S)-6-[(1R)-1-hydroxyethyl]-4-methyl-7-oxo-3[[(3S,5S)-5-(sulfamoylaminomethyl)pyrrolidin-3-yl]thio]-1-azabicyclo[3.2.0]hept-2-ene-2-carboxylic acid], in series [3] (listed as type III crystal), the “Storage stability (in words)” value is recorded as “excellent storage stability as compared to conventional type I or II crystals”.
In the case of `C[C@@H](O)[C@H]1C(=O)N2C(C(=O)O)=C(S[C@@H]3CN[C@H](CNS(N)(=O)=O)C3)[C@H](C)[C@H]12` [Type IV, (+)-(4R,5S,6S)-6-[(1R)-1-hydroxyethyl]-4-methyl-7-oxo-3[[(3S,5S)-5-(sulfamoylaminomethyl)pyrrolidin-3-yl]thio]-1-azabicyclo[3.2.0]hept-2-ene-2-carboxylic acid], the Moisture in series [1] (setting [4]) is recorded as 4.99%; in series [1] (setting [5]), 4.79%; in series [1] (setting [6]), 4.89%; in series [1] (Initial time, before storage) it was 4.62%. For the same molecule, in series [1] (listed as type IV crystal), the “Moisture absorption (in words)” value is recorded as “absorbs substantially no moisture”. Besides, the Potency in series [2] (setting [4]) is 981.5 µg/mg; in series [2] (setting [5]), 990.8 µg/mg; in series [2] (setting [6]) it was 992.4 µg/mg; in series [2] (Initial time, before storage), 993.3 µg/mg. The “Change of potency over storage time (in words)” value in series [2] (listed as type IV crystal) was “no significant change”. The “Storage stability (in words)” value in series [3] (listed as type IV crystal) is “more excellent storage stability”. Further, the “Stability relative to type II crystal (other test results, in words)” value in series [3] (other test results) is given as “more stable than the type II crystal”.
